The target of one experiment is dephosphorylated FGFR1 (Homo sapiens (Human), UniProt P11362). In words: FGFR Enzyme Binding Assay (HTRF tracer displacement), FGFR1. To be noted: 5 nM dephosphorylated FGFR1, 60 minute incubation at 22° C.; read-out: FGFR1 Enz Binding IC50. On the procedure: The potency of compounds inhibiting human isoforms of FGFR kinase was determined using Life Technologies' Homogeneous Time Resolved Fluorescence (HTRF)-based binding assay technology. An incubation was conducted with either 5 nM dephosphorylated FGFR1 (Array Biopharma, p1702; SEQ ID NO: 1, amino acids 458 to 765, dephosphorylated by co-expression with PTP1b (protein tyrosine phosphatase 1B)), 5 nM dephosphorylated FGFR2 (Life Technologies, Cat. No. PV4106 that had been dephosphorylated with Lambda protein phosphatase (New England Biolabs, cat #P0753)) or 5 nM phosphorylated FGFR3 (Array Biopharma, p1836; SEQ ID NO: 5, amino acids 449 to 759), 50 nM Kinase Tracer 236 (Life Technologies Cat. No. PR9078A), 2 nM Biotin-anti-6HIS (Life Technologies Cat. No. PV6090) and 2 nM Europium-Streptavidin (Life Technologies Cat. No. PV6025) along with test compound in a buffer consisting of 50 mM HEPES ((4-(2-hydroxyethyl)-1-piperazineethanesulfonic acid, pH 7.5), 5 mM MgCl2, 0.005% Triton X-100, 1 mM DTT, 1 mM NaVO4 and 2% DMSO in a final volume of 12 μL Compounds were typically prepared as a 3-fold or 4-fold serial dilution in DMSO and added to the assay to give the appropriate final concentration. After a 60 minute incubation at 22° C., the extent of tracer displacement was determined using a PerkinElmer EnVision multimode plate reader via HTRF dual wavelength detection, and the percent of control (POC) was calculated using a ratiometric emission factor. One hundred POC was determined using no test compound, and 0 POC was determined in the presence of 1 μM of an appropriate control inhibitor. A 4-parameter logistic curve was fit to the POC values as a function of the concentration of compound, and the IC50 value was the point where the best-fit curve crossed 50 POC.
Chain of dephosphorylated FGFR1 (P11362 458-765): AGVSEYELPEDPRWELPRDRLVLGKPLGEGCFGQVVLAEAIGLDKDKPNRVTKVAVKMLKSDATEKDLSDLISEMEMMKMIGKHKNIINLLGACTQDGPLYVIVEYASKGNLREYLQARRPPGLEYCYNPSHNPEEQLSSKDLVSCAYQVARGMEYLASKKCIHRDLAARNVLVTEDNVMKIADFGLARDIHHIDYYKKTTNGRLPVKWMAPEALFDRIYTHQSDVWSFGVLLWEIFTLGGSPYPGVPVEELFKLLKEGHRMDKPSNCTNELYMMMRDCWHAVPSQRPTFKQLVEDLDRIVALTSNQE

The target of another experiment is FGFR3 (Homo sapiens (Human), UniProt P22607). In words: FGFR Enzyme Activity Assay (LanthaScreen TR-FRET), FGFR3. The class given is biochemical. To be noted: 25 μM ATP, 10 minute incubation; read-out: FGFR3 Enz FRET IC50. On the procedure: FGFR3 kinase activity was measured by the Invitrogen LanthaScreen™ Assay technology which directly measures the amount of substrate phosphorylation by TR-FRET using a flourescently-labeled peptide and Europium-labeled antibody. Briefly, 750 pM N-terminal GST-HIS6 fusion protein with a 3C cleavage site recombinant human FGFR3 (amino acids R397-T806) (ProQinase Cat. No. 1068-0000-1) was incubated with 100 nM Alexa Fluor® 647-Poly-GT Peptide Substrate (Life Technologies Cat. No. PV5836) and 25 μM ATP along with test compound in a buffer consisting of 250 mM HEPES, 25 mM MgCl2, 0.05% TritonX-100, pH 7.5, and 2% DMSO. Compounds were typically prepared in a threefold serial dilution in DMSO and added to the assay to give the appropriate final concentration. After a 10 minute incubation at 22° C., an equal volume of 2 nM LanthaScreen® Eu-PY20 Antibody (Life Technologies Cat. No. PV5691) and 10 mM EDTA were added to quench the kinase reaction and start the detection reaction. After an additional 60 minute incubation at 22° C., the reaction was measured using a PerkinElmer EnVision multimode plate reader via TR-FRET dual wavelength detection, and the percent of control (POC) calculated using a ratiometric emission factor. 100 POC was determined using no test compounds and 0 POC was determined using no enzyme. The POC values were fit to a 4-parameter logistic curve as a function of the concentration of the compound, and the IC50 value is the point where the curve crosses 50 POC.
Chain of FGFR3 (P22607 397-806): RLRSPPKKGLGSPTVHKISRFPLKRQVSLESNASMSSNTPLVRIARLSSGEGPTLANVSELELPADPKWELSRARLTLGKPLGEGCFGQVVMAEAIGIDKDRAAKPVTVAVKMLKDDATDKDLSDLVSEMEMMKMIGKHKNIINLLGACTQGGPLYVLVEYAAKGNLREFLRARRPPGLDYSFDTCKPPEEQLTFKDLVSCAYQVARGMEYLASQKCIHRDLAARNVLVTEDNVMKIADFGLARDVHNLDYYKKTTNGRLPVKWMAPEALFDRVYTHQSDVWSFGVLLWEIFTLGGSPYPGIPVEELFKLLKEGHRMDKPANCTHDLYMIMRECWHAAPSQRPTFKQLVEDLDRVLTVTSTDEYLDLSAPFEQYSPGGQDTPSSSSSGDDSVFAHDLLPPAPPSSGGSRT

For the next experiment, the target named is FGFR1 (Homo sapiens (Human), UniProt P11362). Briefly: LC/MS FGFR1 kobs assay (covalent modification). The class given is biochemical. To be noted: 500 nM FGFR1, 3 μM compound. On the procedure: The LC/MS FGFR1 and FGFR3 kobs assays were conducted as follows. 500 nM FGFR1 (Array BioPharma construct p1702; SEQ ID NO: 1, amino acids 458-765) or FGFR3 (Array BioPharma construct p1700; SEQ ID NO: 5, amino acids 449-759) were incubated with 3 μM compound in 25 mM HEPES (4-(2-hydroxyethyl)-1-piperazineethanesulfonic acid), pH 7.4, 5 mM MgCl2, 150 mM NaCl, 0.5 mM TCEP (tris(2-carboxyethyl) phosphine), and 2% DMSO in a total volume of 20 μL. At each time point, the reaction was quenched with 20 μL of 0.4% formic acid. The extent of protein modification by each compound was determined by LC/MS on an Agilent Technologies 6520 Q-TOF LC/MS. Protein signals were then automatically deconvoluted using Agilent Masshunter software. Deconvoluted mass signals were exported to Tibco Spotfire data analysis program for further processing and normalization.
Chain of FGFR1 (P11362 458-765): as the sequence (P11362 458-765) above
Data analysis included five steps. First, the signals for the “DMSO Controls” were analyzed to determine the percent of signal associated with unmodified FGFR1 or FGFR3 at each time point. Next, the percent of the signal associated with the covalent modification was determined. Third, the average nonmodified “DMSO Control” signal was used to normalize the modified protein signals at each time point. The percent of unmodified protein was fit to an exponential decay model where A0 is the Percent Unmodified at the start of the reaction, and kobs is the observed rate constant over the time period.

Another experiment addresses human wild type FGFR1 (Homo sapiens (Human), UniProt P11362). Briefly: FGFR1 pERK Cell Assay. Format: cell-based. To be noted: HEK-293 cells, 1 hour compound, 100 ng/ml human FGF-acidic; maximum concentration 5 μM. As to the method: HEK-293 cells transfected with doxycycline(dox)-inducible human wild type FGFR1 (SEQ ID NO: 1) were plated in a collagen or poly-D-lysine coated 96 well flat bottom plates at 4×10^5 cells/well in complete Dulbecco's Modified Eagle Medium (DMEM) containing 10% FBS and 1 μg/ml doxycycline and allowed to attach for 24 h at 37° C., 5% CO2. Cells were treated with compound using 1:3 serial dilutions with a maximum final concentration of 5 μM. Compound was incubated on cells for 1 hour at 37° C., 5% CO2. Cells were then stimulated with a final concentration of 100 ng/ml human FGF-acidic (R&D Systems Cat number 232-FA/CF) for 5 minutes at 37° C., 5% CO2. Medium was removed, and cells were lysed with lysis buffer containing phosphatase and protease inhibitors. Phospho ERK1/2 was measured using the Meso Scale Discovery sandwich assay (Meso Scale Discovery cat. no. K151DWD). The assay captures phospho ERK1/2 and detects with a sulfo-tagged total ERK1/2 antibody. The chemiluminescent signal was read on the Sector Imager Plate reader. 100 POC was determined using no test compound and 0 POC was determined using a control compound. The POC values were fit to a 4-parameter logistic curve as a function of the concentration of the compound, and the IC50 value is the point where the curve crosses 50 POC.

In general, IC50 refers to the concentration that inhibits the measured activity by half.

Structures are written as SMILES.

Chain of human wild type FGFR1 (P11362 22-822): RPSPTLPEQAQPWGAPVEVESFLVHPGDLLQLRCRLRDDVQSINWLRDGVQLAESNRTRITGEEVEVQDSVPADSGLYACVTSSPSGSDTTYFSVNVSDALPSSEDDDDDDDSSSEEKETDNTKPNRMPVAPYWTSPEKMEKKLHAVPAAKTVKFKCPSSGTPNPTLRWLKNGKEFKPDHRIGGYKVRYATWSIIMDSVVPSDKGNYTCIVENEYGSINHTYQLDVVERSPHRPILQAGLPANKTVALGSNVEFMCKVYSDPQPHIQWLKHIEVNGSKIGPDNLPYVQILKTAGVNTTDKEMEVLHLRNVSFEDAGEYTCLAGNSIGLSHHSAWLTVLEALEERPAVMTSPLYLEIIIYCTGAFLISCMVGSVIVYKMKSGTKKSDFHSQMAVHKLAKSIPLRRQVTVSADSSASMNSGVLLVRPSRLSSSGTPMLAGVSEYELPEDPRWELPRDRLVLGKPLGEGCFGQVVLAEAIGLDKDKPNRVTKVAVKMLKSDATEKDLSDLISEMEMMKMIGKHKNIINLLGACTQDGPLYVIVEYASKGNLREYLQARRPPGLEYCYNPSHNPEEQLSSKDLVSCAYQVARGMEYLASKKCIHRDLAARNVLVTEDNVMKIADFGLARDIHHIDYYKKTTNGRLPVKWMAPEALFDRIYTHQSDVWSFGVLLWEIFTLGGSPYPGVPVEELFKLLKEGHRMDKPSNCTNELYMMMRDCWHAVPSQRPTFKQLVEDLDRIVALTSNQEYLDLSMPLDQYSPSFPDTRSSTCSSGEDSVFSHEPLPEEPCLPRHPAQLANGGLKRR

In the case of `C=CC(=O)N1CC(F)(C(=O)N2CCC(n3cc(-c4cnc5ccc(Nc6cc(OC)cc(OC)c6)cc5n4)cn3)CC2)C1` [Example 4, 1-(3-(4-(4-(7-((3,5-dimethoxyphenyl)amino)-quinoxalin-2-yl)-1H-pyrazol-1-yl)piperidine-1-carbonyl)-3-fluoro-azetidin-1-yl)prop-2-en-1-one], the half-maximal inhibitory concentration (IC50) at dephosphorylated FGFR1 was 33 nM; at FGFR3, 10 nM; at human wild type FGFR1, 170 nM. Moreover, the “FGFR1 Enz kobs” value on FGFR1 is 0.00632 min⁻¹.
On to `C=CC(=O)N1CC(O)(C(=O)N2CCC(n3cc(-c4cnc5ccc(N(C)c6cc(OC)cc(OC)c6)cc5n4)cn3)CC2)C1` [Example 27, 1-(3-(4-(4-(7-((3,5-dimethoxyphenyl)(methyl)amino)quinoxalin-2-yl)-1H-pyrazol-1-yl)piperidine-1-carbonyl)-3-hydroxyazetidin-1-yl)prop-2-en-1-one], for which the IC50 amounted to 13 nM on dephosphorylated FGFR1, 2 nM at FGFR3 and 128 nM at human wild type FGFR1. In addition, the “FGFR1 Enz kobs” value at FGFR1 was found to be 0.00264 min⁻¹.
With `C=CC(=O)N1CC(C#N)(C(=O)N2CCC(n3cc(-c4cnc5ccc(Nc6cc(OC)cc(OC)c6)cc5n4)cn3)CC2)C1` [Example 12, 1-acryloyl-3-(4-(4-(7-((3,5-dimethoxyphenyl)-amino)quinoxalin-2-yl)-1H-pyrazol-1-yl)-piperidine-1-carbonyl)-azetidine-3-carbonitrile], the IC50 on dephosphorylated FGFR1 was 48 nM; at FGFR3 it was 13 nM; on human wild type FGFR1, 149 nM. Moreover, the “FGFR1 Enz kobs” value on FGFR1 was 0.0107 min⁻¹.
In the same order, the values of `COc1cc(Nc2ccc3ncc(-c4cnn(C5CCN(C(=O)C6(F)CN(C(=O)/C=C/CN(C)C)C6)CC5)c4C)nc3c2)cc(OC)c1` [Example 17, (E)-1-(3-(4-(4-(7-((3,5-dimethoxyphenyl)amino)-quinoxalin-2-yl)-5-methyl-1H-pyrazol-1-yl)piperi-dine-1-carbonyl)-3-fluoroazetidin-1-yl)-4-(dimethylamino)but-2-en-1-one] are 102 nM, 48 nM, 423 nM and 0.00842 min⁻¹.
With `C=CC(=O)N1CC(C(=O)N2CCN(c3ccc(-c4cnc5ccc(Nc6cc(OC)cc(OC)c6)cc5n4)cn3)CC2)C1` [Example 5, 1-(3-(4-(5-(7-((3,5-dimethoxyphenyl)amino)-quinoxalin-2-yl)pyridin-2-yl)piperazine-1-carbonyl)azetidin-1-yl)-prop-2-en-1-one], the IC50 at dephosphorylated FGFR1 stood at 623 nM; on FGFR3 it was 272 nM; at human wild type FGFR1, 2690 nM. Moreover, the “FGFR1 Enz kobs” value at FGFR1 came out at 0.0011 min⁻¹.
In the same order, the values of `C=CC(=O)N1CC(F)(C(=O)N2CCN(c3cc(C)c(-c4cnc5ccc(Nc6cc(OC)cc(OC)c6)cc5n4)cn3)CC2)C1` [Example 15, 1-(3-(4-(5-(7-((3,5-dimethoxyphenyl)amino)-quinoxalin-2-yl)-4-methylpyridin-2-yl)-piperazine-1-carbonyl)-3-fluoroazetidin-1-yl)prop-2-en-1-one] are 2370 nM, 5000 nM, at least 5000 nM and 0.00154 min⁻¹.
As to `C=CC(=O)N1CC(CN2CCC(n3cc(-c4cnc5ccc(Nc6cc(OC)cc(OC)c6)cc5n4)cn3)CC2)C1` [Example 30, 1-(3-((4-(4-(7-((3,5-dimethoxyphenyl)amino)quinoxalin-2-yl)-1H-pyrazol-1-yl)piperidin-1-yl)methyl)azetidin-1-yl)prop-2-en-1-one], the IC50 worked out at 34 nM on dephosphorylated FGFR1, 26 nM at FGFR3 and 225 nM at human wild type FGFR1. In addition, the “FGFR1 Enz kobs” value on FGFR1 is 0.00172 min⁻¹.
With `COc1cc(Nc2ccc3ncc(-c4cnn(C5CCN(C(=O)C6(F)CN(C(=O)/C=C/CN(C)C)C6)CC5)c4)nc3c2)cc(OC)c1` [Example 10, (E)-1-(3-(4-(4-(7-((3,5-dimethoxyphenyl)amino)-quinoxalin-2-yl)-1H-pyrazol-1-yl)piperidine-1-carbonyl)-3-fluoro-azetidin-1-yl)-4-(dimethylamino)but-2-en-1-one], the half-inhibitory concentration (IC50) on dephosphorylated FGFR1 is 28 nM; at FGFR3 it was 16 nM; on human wild type FGFR1, 134 nM. On FGFR1, the “FGFR1 Enz kobs” value amounted to 0.01569 min⁻¹.
`C=CC(=O)N1CC(OC)(C(=O)N2CCC(n3cc(-c4cnc5ccc(Nc6cc(OC)cc(OC)c6)cc5n4)cn3)CC2)C1` [Example 24, 1-(3-(4-(4-(7-((3,5-dimethoxyphenyl)amino)-quinoxalin-2-yl)-1H-pyrazol-1-yl)piperidine-1-carbonyl)-3-methoxy-azetidin-1-yl)prop-2-en-1-one]: the IC50 was determined as 53 nM on dephosphorylated FGFR1, 24 nM on FGFR3 and 225 nM at human wild type FGFR1. In addition, at FGFR1, the “FGFR1 Enz kobs” value came to 0.00223 min⁻¹.
With `C=CC(=O)N1CC(C(=O)N2CCC(n3cc(-c4cnc5ccc(Nc6cc(OC)cc(OC)c6)cc5n4)cn3)CC2)C1` [Example 1, 1-(3-(4-(4-(7-((3,5-dimethoxyphenyl)amino)quinoxalin-2-yl)-1H-pyrazol-1-yl)piperidine-1-carbonyl)azetidin-1-yl)prop-2-en-1-one], the results for the IC50 at dephosphorylated FGFR1, on FGFR3 and against human wild type FGFR1 were 22 nM, 9 nM and 507 nM, respectively. Besides, at FGFR1, the “FGFR1 Enz kobs” value was found to be 0.00127 min⁻¹.

These data come from patent US12351571B2, “Substituted quinoxaline compounds as inhibitors of FGFR tyrosine kinases” (ARRAY BIOPHARMA INC., priority 2018, dated 2025).
